This assay relates to B6C3F1 mice, ip Sarcoma M5076, median survival T/C. Briefly: NCI In Vivo Anticancer Drug Screen. Data for tumor model Sarcoma M5076 (intraperitoneal) in B6C3F1 mice. The following applies: endpoint: median survival time, higher = longer survival. The gist of the method: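 Antitumour effect is judged in tumour-bearing mice by comparing survival after compound dosing against vehicle-only animals, reported as T/C.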

The mark [1] stands for this setting: dose: 6.25 mg/kg/injection, schedule: Q04DX004 (ip), vehicle: saline with Tween-80.
Where [2] appears, read: dose: 12.5 mg/kg/injection, schedule: Q04DX004 (ip), vehicle: saline with Tween-80.
[3] abbreviates: dose: 25.0 mg/kg/injection, schedule: Q04DX004 (ip), vehicle: saline with Tween-80.
Setting [4] is: dose: 50.0 mg/kg/injection, schedule: Q04DX004 (ip), vehicle: saline with Tween-80.
[5] abbreviates: dose: 25.0 mg/kg/injection, schedule: Q04DX004 (ip), vehicle: Klucel (hydroxypropylcellulose) (HPC).
[6] abbreviates: dose: 50.0 mg/kg/injection, schedule: Q04DX004 (ip), vehicle: Klucel (hydroxypropylcellulose) (HPC).
The mark [7] stands for this setting: dose: 100.0 mg/kg/injection, schedule: Q04DX004 (ip), vehicle: Klucel (hydroxypropylcellulose) (HPC).
Setting [8] is: dose: 200.0 mg/kg/injection, schedule: Q04DX004 (ip), vehicle: Klucel (hydroxypropylcellulose) (HPC).
Where [9] appears, read: dose: 100.0 mg/kg/injection, schedule: Q04DX004 (ip), vehicle: saline with Tween-80.
Setting [10] is: dose: 200.0 mg/kg/injection, schedule: Q04DX004 (ip), vehicle: saline with Tween-80.

Values joined by “and” are separate entries in the source; they are usually repeats but may differ in a detail not shown here. Identical values can stand only once. Toxic doses and inconclusive results are not listed.

Regarding `CNC(=O)OCc1nc(SC)n(C)c1COC(=O)NC`, the T/C (dose: 25.0 mg/kg/injection, schedule: Q04DX004 (ip), vehicle: saline) is 122 % of control; the T/C (dose: 25.0 mg/kg/injection, schedule: Q04DX004 (ip), vehicle: suspension in saline) is 119 % of control; the T/C (dose: 50.0 mg/kg/injection, schedule: Q04DX004 (ip), vehicle: saline) is 119 % of control; the T/C (dose: 50.0 mg/kg/injection, schedule: Q04DX004 (ip), vehicle: suspension in saline) was 122 % of control; the T/C (dose: 100.0 mg/kg/injection, schedule: Q04DX004 (ip), vehicle: saline) is 151 % of control; the T/C (dose: 200.0 mg/kg/injection, schedule: Q04DX004 (ip), vehicle: saline) is 184 % of control. Further, the T/C (dose: 200.0 mg/kg/injection, schedule: Q04DX004 (ip), vehicle: suspension in saline) was 193 % of control.

With `COC(=O)C12OCC34C(CC5C(C)C6=CC(=O)OC6=CC5(C)C3C(O)C1O)OC(=O)C(O)C24` (stereo not drawn), the T/C is 107 % of control (dose: 0.25 mg/kg/injection, schedule: Q04DX003 (ip), vehicle: Klucel (hydroxypropylcellulose) (HPC)); 107 % of control (dose: 0.43 mg/kg/injection, schedule: Q04DX003 (ip), vehicle: Klucel (hydroxypropylcellulose) (HPC)); 111 % of control and 113 % of control (dose: 0.5 mg/kg/injection, schedule: Q04DX004 (ip), vehicle: Klucel (hydroxypropylcellulose) (HPC)); 103 % of control (dose: 0.72 mg/kg/injection, schedule: Q04DX003 (ip), vehicle: Klucel (hydroxypropylcellulose) (HPC)); 116 % of control and 122 % of control (dose: 1.0 mg/kg/injection, schedule: Q04DX004 (ip), vehicle: Klucel (hydroxypropylcellulose) (HPC)); 110 % of control (dose: 1.2 mg/kg/injection, schedule: Q04DX003 (ip), vehicle: Klucel (hydroxypropylcellulose) (HPC)). In addition, the T/C is 112 % of control (dose: 2.0 mg/kg/injection, schedule: Q04DX003 (ip), vehicle: Klucel (hydroxypropylcellulose) (HPC)); 123 % of control (dose: 2.0 mg/kg/injection, schedule: Q04DX004 (ip), vehicle: Klucel (hydroxypropylcellulose) (HPC)); 116 % of control (dose: 4.0 mg/kg/injection, schedule: Q04DX004 (ip), vehicle: Klucel (hydroxypropylcellulose) (HPC)).

Consider `CCOC(=O)/N=[N+](\[O-])c1ccccc1`, for which the T/C is 105 % of control (dose: 3.13 mg/kg/injection, schedule: Q04DX004 (ip), vehicle: saline with Tween-80); 97 % of control under setting [1]; 104 % of control under setting [2]; 97 % of control under setting [3]; 101 % of control under setting [4].

In the case of `COC(=O)NC1C(C)OC(OC2C/C=C(/C)C3C=CC4C(OC5CC(OC6CC(O)C(OC7CC(O)C(OC)C(C)O7)C(C)O6)C(O)C(C)O5)C(C)CC(C)C4C3(C)/C(O)=C3\C(=O)OC4(CC(C)C(CO)=CC4/C=C\2C)C3=O)CC1(C)[N+](=O)[O-]` (stereo not drawn), the T/C under setting [5] was 105 % of control, the T/C under setting [6] is 100 % of control, the T/C under setting [7] is 87 % of control and the T/C under setting [8] was 100 % of control.

Turning to `CC(=O)Nc1ccc(Nc2ccc(C(=C3C=CC(=[N+](C)CCC#N)C=C3)c3ccc(N(C)CCC#N)cc3)cc2)cc1`, the T/C is, setting by setting: under setting [2], 101 % of control; under setting [3], 101 % of control; under setting [4], 99 % of control; under setting [9], 100 % of control; under setting [10], 92 % of control.

For `CCNc1nc(NC(C)C)nc(-c2ccncc2)n1`, the T/C is, setting by setting: under setting [5], 93 % of control; under setting [6], 95 % of control; under setting [7], 95 % of control; under setting [8], 95 % of control.

Consider `Nc1nc(N)c2c(ccc3c2ccn3Cc2cccc([N+](=O)[O-])c2)n1`, for which the T/C was 98 % of control and 109 % of control (dose: 2.38 mg/kg/injection, schedule: Q04DX004 (ip), vehicle: saline with Tween-80); 117 % of control (dose: 4.69 mg/kg/injection, schedule: Q04DX004 (ip), vehicle: saline with Tween-80); 115 % of control (dose: 4.75 mg/kg/injection, schedule: Q04DX004 (ip), vehicle: saline with Tween-80); 121 % of control (dose: 9.38 mg/kg/injection, schedule: Q04DX004 (ip), vehicle: saline with Tween-80); 118 % of control (dose: 9.5 mg/kg/injection, schedule: Q04DX004 (ip), vehicle: saline with Tween-80); 153 % of control and 155 % of control (dose: 38.0 mg/kg/injection, schedule: Q04DX004 (ip), vehicle: saline with Tween-80).

Take `COc1ccc(-n2c(CSc3ccc(Cl)cc3)n[nH]c2=S)cc1`: the T/C (dose: 37.5 mg/kg/injection, schedule: Q04DX004 (ip), vehicle: saline with Tween-80) is 96 % of control; the T/C (dose: 75.0 mg/kg/injection, schedule: Q04DX004 (ip), vehicle: saline with Tween-80) was 101 % of control; the T/C (dose: 150.0 mg/kg/injection, schedule: Q04DX004 (ip), vehicle: saline with Tween-80) was 96 % of control; the T/C (dose: 300.0 mg/kg/injection, schedule: Q04DX004 (ip), vehicle: saline with Tween-80) is 87 % of control.

With `N#CC1C(=O)NC(=O)C(C#N)C1c1c2ccccc2cc2ccccc12` (stereo not drawn), the T/C runs as follows: under setting [6], 96 % of control; under setting [7], 103 % of control; under setting [8], 94 % of control; (dose: 400.0 mg/kg/injection, schedule: Q04DX004 (ip), vehicle: Klucel (hydroxypropylcellulose) (HPC)) 106 % of control; (dose: 800.0 mg/kg/injection, schedule: Q04DX004 (ip), vehicle: Klucel (hydroxypropylcellulose) (HPC)) 102 % of control.

Turning to `C=C1COC(O)(C2OCOC(C3CC(=O)NC(=O)C3)C2O)C1C` (stereo not drawn), the T/C (dose: 4.0 micrograms/kg/injection, schedule: Q04DX004 (ip), vehicle: water) was 112 % of control; the T/C (dose: 8.0 micrograms/kg/injection, schedule: Q04DX004 (ip), vehicle: water) was 117 % of control; the T/C (dose: 13.8 micrograms/kg/injection, schedule: Q04DX004 (ip), vehicle: water) was 105 % of control; the T/C (dose: 16.0 micrograms/kg/injection, schedule: Q04DX004 (ip), vehicle: water) is 117 % of control; the T/C (dose: 23.04 micrograms/kg/injection, schedule: Q04DX004 (ip), vehicle: water) is 116 % of control; the T/C (dose: 38.0 micrograms/kg/injection, schedule: Q04DX004 (ip), vehicle: water) was 162 % of control. The T/C (dose: 38.4 micrograms/kg/injection, schedule: Q04DX004 (ip), vehicle: water) is 110 % of control.

`C/C(=N\NC(=S)N1CC2CCC(CC2)C1)c1cccc(C)n1`: the T/C by setting is: under setting [1], 104 % of control and 107 % of control; under setting [2], 101 % of control and 106 % of control and 116 % of control; under setting [3], 104 % of control and 110 % of control and 115 % of control; under setting [4], 101 % of control and 107 % of control and 119 % of control.

`CO[C@@]12[C@@H]3N[C@@H]3CN1C1=C(C(=O)C(NCCc3ccccn3)=C(C)C1=O)[C@@H]2COC(N)=O`: the T/C reads like this: (dose: 3.2 mg/kg/injection, schedule: Q04DX004 (ip), vehicle: saline with Tween-80) 112 % of control; (dose: 5.4 mg/kg/injection, schedule: Q04DX004 (ip), vehicle: saline with Tween-80) 122 % of control; under setting [3], 172 % of control and 197 % of control; (dose: 42.0 mg/kg/injection, schedule: Q04DX004 (ip), vehicle: saline with Tween-80) 200 % of control; (dose: 69.0 mg/kg/injection, schedule: Q04DX004 (ip), vehicle: saline with Tween-80) 280 % of control.

With `c1ccc2c(c1)[nH]c1c2c(N2CCOCC2)nn2cnnc12`, the T/C was 92 % of control under setting [2]; 88 % of control and 96 % of control under setting [3]; 100 % of control under setting [4]; 95 % of control under setting [9]; 87 % of control under setting [10].

For the molecule `O=C(O)CCCc1ccc(N(CCCl)CCCl)cc1`, the T/C (dose: 2.0 mg/kg/injection, schedule: Q04DX004 (ip), vehicle: saline with Tween-80) is 108 % of control; the T/C (dose: 4.0 mg/kg/injection, schedule: Q04DX004 (ip), vehicle: saline with Tween-80) is 114 % of control and 123 % of control; the T/C (dose: 8.0 mg/kg/injection, schedule: Q04DX004 (ip), vehicle: saline with Tween-80) is 118 % of control.

Regarding `CN1C(=O)C(=O)N(Cc2ccco2)C1=O`, the T/C reads like this: (dose: 31.25 mg/kg/injection, schedule: Q04DX004 (ip), vehicle: Klucel (hydroxypropylcellulose) (HPC)) 106 % of control; (dose: 62.5 mg/kg/injection, schedule: Q04DX004 (ip), vehicle: Klucel (hydroxypropylcellulose) (HPC)) 106 % of control; (dose: 125.0 mg/kg/injection, schedule: Q04DX004 (ip), vehicle: Klucel (hydroxypropylcellulose) (HPC)) 99 % of control; (dose: 250.0 mg/kg/injection, schedule: Q04DX004 (ip), vehicle: Klucel (hydroxypropylcellulose) (HPC)) 97 % of control; (dose: 500.0 mg/kg/injection, schedule: Q04DX004 (ip), vehicle: Klucel (hydroxypropylcellulose) (HPC)) 100 % of control.

The record behind these values is PubChem BioAssay AID292 (DTP/NCI, 2004).
